Results on 16 compounds are retold here after patent US11673890B2, “N1-pyrazolospiroketone acetyl-CoA carboxylase inhibitors” (Pfizer Inc., priority 2010, dated 2023).

In assay [1] the target is T1, recombinant human ACC2 (rhACC2) (Homo sapiens, UniProt O00763, V2141I).
T1 construct: a full length Cytomax clone of ACC2 was purchased from Cambridge Bioscience Limited; made in house; host or cells: CHO cells (tetracycline-inducible, pcDNA5 FRT TO-TOPO)
As to the kind of experiment: recombinant hACC2 Transcreener assay (ADP detection FP). Type of assay: biochemical. Conditions: 50 μM ATP, minimum of n=3. How it is done:
For example direct inhibition of ACC activity, for the compound of Formula (1) was determined using preparations of recombinant human ACC1 (rhACC1) and recombinant human ACC2 (rhACC2). Representative sequences of the recombinant human ACC1 and ACC2 that can be used in the assay are provided in FIG. 1 (SEQ ID NO. 1) and FIG. 2 (SEQ. ID NO. 2), respectively.
[3] Preparation of rhACC2. Human ACC2 inhibition was measured using purified recombinant human ACC2 (hrACC2). Briefly, a full length Cytomax clone of ACC2 was purchased from Cambridge Bioscience Limited and was sequenced and subcloned into PCDNA5 FRT TO-TOPO (Invitrogen, Carlsbad, Calif.). The ACC2 was expressed in CHO cells by tetracycline induction and harvested in 5 liters of DMEM/F12 with glutamine, biotin, hygromycin and blasticidin with 1 μg/mL tetracycline (Invitrogen, Carlsbad, Calif.). The conditioned medium containing ACC2 was then applied to a Softlink Soft Release Avidin column (Promega, Madison, Wis.) and eluted with 5 mM biotin. 4 mgs of ACC2 were eluted at a concentration of 0.05 mg/mL (determined by A280) with an estimated purity of 95% ([…]). The purified ACC2 was dialyzed in 50 mM Tris, 200 mM NaCl, 4 mM DTT, 2 mM EDTA, and 5% glycerol. The pooled protein was frozen and stored at −80° C., with no loss of activity upon thawing. For measurement of ACC2 activity and assessment of ACC2 inhibition, test compounds were dissolved in DMSO and added to the rhACC2 enzyme as a 5× stock with a final DMSO concentration of 1%.
[4] Measurement of human ACC2 inhibition. hACC2 was assayed in a Costar #3676 (Costar, Cambridge, Mass.) 384-well plate using the Transcreener ADP detection FP assay kit (Bellbrook Labs, Madison, Wis.) using the manufacturer's recommended conditions for a 50 uM ATP reaction. The final conditions for the assay were 50 mM HEPES, pH 7.2, 5 mM MgCl2, 5 mM tripotassium citrate, 2 mM DTT, 0.1 mg/mL BSA, 30 μM acetyl-CoA, 50 μM ATP, and 8 mM KHCO3. Typically, a 10 μl reaction was run for 50 min at 25° C., and 10 μl of Transcreener stop and detect buffer was added and the combination incubated at room temp for an additional 1 hour. The data was acquired on an Envision Fluorescence reader (Perkinelmer) using a 620 excitation Cy5 FP general dual mirror, 620 excitation Cy5 FP filter, 688 emission (S) and a 688 (P) emission filter.
The results using the recombinant hACC1 and recombinant hACC2 Transcreener assays described above are summarized in the table below for the Compounds of Formula (I) exemplified in the Examples above. All of the examples in both assays were run with a minimum of n=3.

For assay [2], the target named is T2, recombinant human ACC1 (rhACC1) (Homo sapiens, UniProt Q13085, DEL44-44).
T2 construct: infected with recombinant baculovirus containing full length human ACC1 cDNA; made in house; host or cells: SF9 insect cells (baculovirus)
As to the kind of experiment: recombinant hACC1 Transcreener assay (ADP detection FP). Type of assay: biochemical. Conditions: recombinant hACC1 Transcreener assay, 50 μM ATP, minimum of n=3; read-out: hACC1. Here is the method:
For example direct inhibition of ACC activity, for the compound of Formula (1) was determined using preparations of recombinant human ACC1 (rhACC1) and recombinant human ACC2 (rhACC2).
[1] Preparation of rhACC1. Two liters of SF9 cells, infected with recombinant baculovirus containing full length human ACC1 cDNA, were suspended in ice-cold lysis buffer (25 mM Tris, pH 7.5; 150 mM NaCl; 10% glycerol; 5 mM imidazole (EMD Bioscience; Gibbstown, N.J.); 2 mM TCEP (BioVectra; Charlottetown, Canada); Benzonase nuclease (10000 U/100 g cell paste; Novagen; Madison, Wis.); EDTA-free protease inhibitor cocktail (1 tab/50 mL; Roche Diagnostics; Mannheim, Germany). Cells were lysed by 3 cycles of freeze-thaw and centrifuged at 40,000×g for 40 minutes (4° C.). Supernatant was directly loaded onto a HisTrap FF crude column (GE Healthcare; Piscataway, N.J.) and eluted with an imidazole gradient up to 0.5 M over 20 column volumes (CV). ACC1-containing fractions were pooled and diluted 1:5 with 25 mM Tris, pH 7.5, 2 mM TCEP, 10% glycerol and direct loaded onto a CaptoQ (GE Healthcare) column and eluted with an NaCl gradient up to 1 M over 20 CV's. Phosphate groups were removed from purified ACC1 by incubation with lambda phosphatase (100 U/10 μM target protein; New England Biolabs; Beverly, Mass.) for 14 hours at 4° C.; okadaic acid was added (1 μM final concentration; Roche Diagnostics) to inhibit the phosphatase. Purified ACC1 was exchanged into 25 mM Tris, pH 7.5, 2 mM TCEP, 10% glycerol, 0.5 M NaCl by 6 hour dialysis at 4° C. Aliquots were prepared and frozen at −80° C.
[2] […] The final conditions for the assay were 50 mM HEPES, pH 7.2, 10 mM MgCl2, 7.5 mM tripotassium citrate, 2 mM DTT, 0.1 mg/mL BSA, 30 μM acetyl-CoA, 50 μM ATP, and 10 mM KHCO3. Typically, a 10 μl reaction was run for 120 min at 25° C., and 10 μl of Transcreener stop and detect buffer was added and the combination incubated at room temp for an additional 1 hour.
All of the examples in both assays were run with a minimum of n=3.

T1 sequence (O00763 whole entry V2141I): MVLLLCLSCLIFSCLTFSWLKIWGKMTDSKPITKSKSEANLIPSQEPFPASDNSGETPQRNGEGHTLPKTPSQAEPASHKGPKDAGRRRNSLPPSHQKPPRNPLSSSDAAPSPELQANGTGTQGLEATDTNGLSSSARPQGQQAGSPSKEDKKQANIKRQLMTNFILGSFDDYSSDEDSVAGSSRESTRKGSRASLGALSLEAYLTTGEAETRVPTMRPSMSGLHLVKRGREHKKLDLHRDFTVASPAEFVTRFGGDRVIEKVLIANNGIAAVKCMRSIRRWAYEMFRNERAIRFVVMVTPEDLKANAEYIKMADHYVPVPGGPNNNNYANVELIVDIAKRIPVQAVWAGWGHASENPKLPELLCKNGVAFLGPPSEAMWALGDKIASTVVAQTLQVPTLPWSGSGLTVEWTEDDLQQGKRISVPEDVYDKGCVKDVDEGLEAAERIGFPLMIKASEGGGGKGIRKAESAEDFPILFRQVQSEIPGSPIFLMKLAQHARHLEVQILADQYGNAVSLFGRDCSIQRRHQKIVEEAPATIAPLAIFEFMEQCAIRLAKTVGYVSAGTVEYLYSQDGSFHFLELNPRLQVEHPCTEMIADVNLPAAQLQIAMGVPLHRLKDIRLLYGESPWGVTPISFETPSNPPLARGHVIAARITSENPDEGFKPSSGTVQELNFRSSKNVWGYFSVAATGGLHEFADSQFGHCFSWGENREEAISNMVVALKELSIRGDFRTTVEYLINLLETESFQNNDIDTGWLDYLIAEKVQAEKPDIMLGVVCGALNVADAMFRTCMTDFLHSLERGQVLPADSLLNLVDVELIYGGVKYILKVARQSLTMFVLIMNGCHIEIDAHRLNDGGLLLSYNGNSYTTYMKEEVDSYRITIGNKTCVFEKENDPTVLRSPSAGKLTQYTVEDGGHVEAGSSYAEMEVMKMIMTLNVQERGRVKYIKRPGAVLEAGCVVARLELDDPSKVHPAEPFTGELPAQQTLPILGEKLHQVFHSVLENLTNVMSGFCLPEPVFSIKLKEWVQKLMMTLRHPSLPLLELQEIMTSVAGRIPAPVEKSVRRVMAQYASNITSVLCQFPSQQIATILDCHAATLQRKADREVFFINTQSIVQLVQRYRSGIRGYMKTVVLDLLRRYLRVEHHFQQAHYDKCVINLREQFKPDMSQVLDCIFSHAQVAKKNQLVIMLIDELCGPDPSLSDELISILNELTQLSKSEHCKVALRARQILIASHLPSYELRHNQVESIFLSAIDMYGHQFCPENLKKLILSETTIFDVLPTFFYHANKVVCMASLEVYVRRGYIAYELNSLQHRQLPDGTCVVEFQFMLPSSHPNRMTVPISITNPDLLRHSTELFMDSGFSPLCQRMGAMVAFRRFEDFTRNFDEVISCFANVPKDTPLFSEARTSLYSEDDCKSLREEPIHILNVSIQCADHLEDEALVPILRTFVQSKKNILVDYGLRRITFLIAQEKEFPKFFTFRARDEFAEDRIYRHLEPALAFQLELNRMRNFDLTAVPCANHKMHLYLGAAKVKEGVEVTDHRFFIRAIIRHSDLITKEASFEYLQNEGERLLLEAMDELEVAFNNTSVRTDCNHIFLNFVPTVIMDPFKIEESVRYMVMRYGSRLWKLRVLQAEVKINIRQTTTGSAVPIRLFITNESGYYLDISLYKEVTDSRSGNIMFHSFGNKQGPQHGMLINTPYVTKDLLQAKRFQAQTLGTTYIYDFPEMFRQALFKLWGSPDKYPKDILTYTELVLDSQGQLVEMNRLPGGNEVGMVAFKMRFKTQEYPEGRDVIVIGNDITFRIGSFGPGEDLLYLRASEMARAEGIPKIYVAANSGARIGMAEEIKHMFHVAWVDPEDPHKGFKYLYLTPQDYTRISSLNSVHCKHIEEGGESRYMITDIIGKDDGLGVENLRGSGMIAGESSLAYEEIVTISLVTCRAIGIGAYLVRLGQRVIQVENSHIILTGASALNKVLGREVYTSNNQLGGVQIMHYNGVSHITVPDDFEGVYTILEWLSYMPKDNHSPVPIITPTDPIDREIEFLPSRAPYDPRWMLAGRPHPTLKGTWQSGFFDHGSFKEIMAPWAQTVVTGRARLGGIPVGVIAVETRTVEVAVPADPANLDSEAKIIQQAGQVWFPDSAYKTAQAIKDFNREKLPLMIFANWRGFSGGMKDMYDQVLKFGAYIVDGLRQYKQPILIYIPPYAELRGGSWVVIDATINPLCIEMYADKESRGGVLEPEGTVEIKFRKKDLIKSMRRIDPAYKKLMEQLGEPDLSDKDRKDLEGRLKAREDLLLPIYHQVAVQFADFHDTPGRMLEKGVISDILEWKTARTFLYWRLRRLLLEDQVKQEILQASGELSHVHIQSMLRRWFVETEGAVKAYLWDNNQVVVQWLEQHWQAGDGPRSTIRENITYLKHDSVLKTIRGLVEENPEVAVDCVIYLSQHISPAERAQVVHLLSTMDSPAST

As to `COc1cc(C(=O)N2CCC3(CC2)CC(=O)c2c(cnn2C(C)(C)C)C3)cc(-c2cccc(C(=O)O)c2)n1` [Example 11, 3-{4-[(1-tert-butyl-7-oxo-1,4,6,7-tetrahydro-1′H-spiro[indazole-5,4′-piperidin]-1′-yl)carbonyl]-6-methoxypyridin-2-yl}benzoic acid], the IC50 in assay [1] was 268 nM; in assay [2] it was 180 nM.
For `CC(C)Nc1nc(-c2cccc(C(=O)O)c2)ccc1C(=O)N1CCC2(CC1)CC(=O)c1c(cnn1C(C)C)C2` [Example 23, 3-{6-(isopropylamino)-5-[(1-isopropyl-7-oxo-1,4,6,7-tetrahydro-1′H-spiro[indazole-5,4′-piperidin]-1′-yl)carbonyl]pyridin-2-yl}benzoic acid], the IC50 in assay [1] was 420 nM; in assay [2], 1370 nM.
Take `CC(C)n1ncc2c1C(=O)CC1(CCN(C(=O)c3cc(-c4ccc(C(=O)O)cc4)nc(N(C)C)c3)CC1)C2` [Example 33, 4-{6-(dimethylamino)-4-[(1-isopropyl-7-oxo-1,4,6,7-tetrahydro-1′H-spiro[indazole-5,4′-piperidin]-1′-yl)carbonyl]pyridin-2-yl}benzoic acid]: the IC50 in assay [1] was found to be 8.7 nM; in assay [2], 16.3 nM.
Consider `CC(C)n1ncc2c1C(=O)CC1(CCN(C(=O)c3ccc(-c4cccc(-c5nnn[nH]5)c4)cc3)CC1)C2` [Example 48, 1-isopropyl-1′-{[3′-(1H-tetrazol-5-yl)biphenyl-4-yl]carbonyl}-1,4-dihydrospiro[indazole-5,4′-piperidin]-7(6H)-one], for which the values for the IC50 in assay [1] and in assay [2] were 28 nM and 59.5 nM, respectively.
Take `CC(C)(C)n1ncc2c1C(=O)CC1(CCN(C(=O)c3cc4c(-c5ccc(C(=O)O)cc5)cccc4[nH]3)CC1)C2` [Example 18, 4-{2-[(1-tert-butyl-7-oxo-1,4,6,7-tetrahydro-1′H-spiro[indazole-5,4′-piperidin]-1′-yl)carbonyl]-1H-indol-4-yl}benzoic acid]: the figures for the IC50 in assay [1] and in assay [2] were 14.6 nM and 4.5 nM, respectively.
For `CC(C)(C)n1ncc2c1C(=O)CC1(CCN(C(=O)c3ccc(OCc4ccc(C(=O)O)cc4)cc3)CC1)C2` [Example 1, 4-((4-(1-Tert-butyl-7-oxo-1,4,6,7-tetrahydrospiro[indazole-5,4′-piperidine]-1′-ylcarbonyl)phenoxy)methyl)benzoic acid], the figures for the IC50 in assay [1] and in assay [2] were 184 nM and 176 nM, respectively.
Regarding `CNc1ncc(-c2cccc(C(=O)O)c2)cc1C(=O)N1CCC2(CC1)CC(=O)c1c(cnn1C(C)C)C2` [Example 43, 3-{5-[(1-isopropyl-7-oxo-1,4,6,7-tetrahydro-1′H-spiro[indazole-5,4′-piperidin]-1′-yl)carbonyl]-6-(methylamino)pyridin-3-yl}benzoic acid], the IC50 in assay [1] came to 133 nM; in assay [2], 98.4 nM.
On to “4-{5-[(1-tert-butyl-7-oxo-1,4,6,7-tetrahydro-1′H-spiro[indazole-5,4′-piperidin]-1′-yl)carbonyl]-6-(methylamino)pyridin-2-yl}benzoic acid [Example 12]”, for which the values for the IC50 in assay [1] and in assay [2] were 94.5 nM and 152 nM, respectively.
Consider “3-{2-[(1-isopropyl-7-oxo-1,4,6,7-tetrahydro-1′H-spiro[indazole-5,4′-piperidin]-1′-yl)carbonyl]-1H-benzimidazol-4-yl}benzoic acid [Example 45]”, for which the IC50 in assay [1] is 10 nM; in assay [2], 4.9 nM.
For `CC(C)n1ncc2c1C(=O)CC1(CCN(C(=O)c3cc4c(-c5cccc(C(=O)O)c5)ccnc4[nH]3)CC1)C2` [Example 28, 3-{2-[(1-isopropyl-7-oxo-1,4,6,7-tetrahydro-1′H-spiro[indazole-5,4′-piperidin]-1′-yl)carbonyl]-1H-pyrrolo[2,3-b]pyridin-4-yl}benzoic acid], in that order: 5.35 nM and 6.7 nM.
Consider `CC(C)n1ncc2c1C(=O)CC1(CCN(C(=O)c3cc(-c4ccc(C(=O)O)cc4)c4cc[nH]c4c3)CC1)C2` [Example 37, 4-{6-[(1-isopropyl-7-oxo-1,4,6,7-tetrahydro-1′H-spiro[indazole-5,4′-piperidin]-1′-yl)carbonyl]-1H-indol-4-yl}benzoic acid], for which the figures for the IC50 in assay [1] and in assay [2] were 3.2 nM and 6.6 nM, respectively.
Take `CC(C)n1ncc2c1C(=O)CC1(CCN(C(=O)c3cc4c(-c5cccc(C(=O)O)c5)cncc4[nH]3)CC1)C2` [Example 40, 3-{2-[(1-isopropyl-7-oxo-1,4,6,7-tetrahydro-1′H-spiro[indazole-5,4′-piperidin]-1′-yl)carbonyl]-1H-pyrrolo[2,3-c]pyridin-4-yl}benzoic acid]: the IC50 in assay [1] stood at 6.1 nM; in assay [2], 10.2 nM.
For `CC(C)n1ncc2c1C(=O)CC1(CCN(C(=O)c3nc4cc(-c5ccc(C(=O)O)cc5)ccc4[nH]3)CC1)C2` [Example 46, 4-{2-[(1-isopropyl-7-oxo-1,4,6,7-tetrahydro-1′H-spiro[indazole-5,4′-piperidin]-1′-yl)carbonyl]-1H-benzimidazol-5-yl}benzoic acid], in that order: 15.7 nM and 11.6 nM.
As to `CC(C)n1ncc2c1C(=O)CC1(CCN(C(=O)c3cc4c(-c5ccc(C(=O)O)cc5)cncc4[nH]3)CC1)C2` [Example 38, 4-{2-[(1-isopropyl-7-oxo-1,4,6,7-tetrahydro-1′H-spiro[indazole-5,4′-piperidin]-1′-yl)carbonyl]-1H-pyrrolo[2,3-c]pyridin-4-yl}benzoic acid], the IC50 was found to be 19.9 nM in assay [1] and 33.5 nM in assay [2].
Turning to `CC(C)n1ncc2c1C(=O)CC1(CCN(C(=O)c3cc4ccc(-c5cccc(C(=O)O)c5)cc4[nH]3)CC1)C2` [Example 41, 3-{2-[(1-isopropyl-7-oxo-1,4,6,7-tetrahydro-1′H-spiro[indazole-5,4′-piperidin]-1′-yl)carbonyl]-1H-indol-6-yl}benzoic acid], the IC50 in assay [1] stood at 15.2 nM; in assay [2], 8.6 nM.
As to `CC(C)n1ncc2c1C(=O)CC1(CCN(C(=O)c3cc(C(=O)O)cc(-c4ncco4)c3)CC1)C2` [Example 22, 3-[(1-isopropyl-7-oxo-1,4,6,7-tetrahydro-1′H-spiro[indazole-5,4′-piperidin]-1′-yl)carbonyl]-5-(1,3-oxazol-2-yl)benzoic acid], the IC50 worked out at 685 nM in assay [1] and 1010 nM in assay [2].
